The source of these data is article PMC3210601, “New Tetromycin Derivatives with Anti-Trypanosomal and Protease Inhibitory Activities” (Marine Drugs, 2011).

“And” between values parts separate entries of the source, which are not always exact repeats. Equal values may be shown once. Read-outs that look alike come from different tables or passages of the source. Bounds are passed on as bounds.

A short description of series [1]: Cytotoxicity Alamar Blue assay, 293T kidney epithelial cells. The conditions noted are these: human. In general terms: Resazurin is reduced to fluorescent resorufin, in cell work by metabolically active cells.
Series [2] has as its system Leishmania major promastigotes. Put plainly: Anti-Leishmania Alamar Blue assay (promastigotes). The conditions noted are these: read-out: IC50 L. major.
In series [3] the test system is Trypanosoma brucei subsp. brucei. In words: Anti-Trypanosoma Alamar Blue assay (trypomastigotes, strain TC 221).
In series [4] the target is rhodesain (Trypanosoma brucei rhodesiense, UniProt Q95PM0). In words: Fluorometric protease inhibition assay, rhodesain. The series is classed as biochemical, T. brucei rhodesiense. The conditions noted are these: for Ki: read-out: RD Ki; for RD k2nd: time-dependent inhibition, k2nd = ki/Ki.
Chain of rhodesain (Q95PM0 entry or part of it): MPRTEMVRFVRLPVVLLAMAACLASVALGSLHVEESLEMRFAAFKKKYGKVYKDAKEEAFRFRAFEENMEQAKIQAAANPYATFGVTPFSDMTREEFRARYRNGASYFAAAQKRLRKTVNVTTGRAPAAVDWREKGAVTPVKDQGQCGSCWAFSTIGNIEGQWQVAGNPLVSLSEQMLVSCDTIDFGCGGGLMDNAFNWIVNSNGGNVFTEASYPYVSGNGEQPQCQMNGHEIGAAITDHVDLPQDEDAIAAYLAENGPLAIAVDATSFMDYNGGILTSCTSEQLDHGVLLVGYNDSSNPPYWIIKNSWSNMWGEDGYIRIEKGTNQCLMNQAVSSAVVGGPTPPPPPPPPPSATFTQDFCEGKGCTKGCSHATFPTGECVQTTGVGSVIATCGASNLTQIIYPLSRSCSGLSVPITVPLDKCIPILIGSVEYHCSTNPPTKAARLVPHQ
Series [5] addresses cathepsin L (Homo sapiens, UniProt P07711). In words: Fluorometric protease inhibition assay, cathepsin L. The series is classed as biochemical, mammalian. The conditions noted are these: for Ki: read-out: CL Ki; for CL k2nd: time-dependent inhibition, k2nd = ki/Ki.
For series [6], the target named is falcipain-2 (Plasmodium falciparum, UniProt Q8I6U4). Put plainly: Fluorometric protease inhibition assay, falcipain-2. The series is classed as biochemical, P. falciparum. The conditions noted are these: for Ki: read-out: FP Ki; for FP k2nd: time-dependent inhibition, k2nd = ki/Ki.
Chain of falcipain-2 (Q8I6U4 244-484): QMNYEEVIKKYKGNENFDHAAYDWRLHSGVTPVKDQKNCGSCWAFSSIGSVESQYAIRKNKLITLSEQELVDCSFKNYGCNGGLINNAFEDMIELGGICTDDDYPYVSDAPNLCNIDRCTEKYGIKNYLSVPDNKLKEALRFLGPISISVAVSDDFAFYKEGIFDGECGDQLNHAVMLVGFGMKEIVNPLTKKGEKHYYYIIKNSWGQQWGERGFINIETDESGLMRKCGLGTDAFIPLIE
In series [7] the target is cathepsin B (Homo sapiens, UniProt P07858). Put plainly: Fluorometric protease inhibition assay, cathepsin B. The series is classed as biochemical, mammalian. The conditions noted are these: for Ki: non-time dependent, Dixon equation, corrected to zero substrate, substrate 100 μM, pH 6.2, 25 °C, read-out: CB Ki.
In series [8] the target is SARS-CoV PL^pro (Severe acute respiratory syndrome coronavirus, UniProt P0C6X7). In words: biochemical.
For series [9] the following is noted: mouse.
[10] abbreviates: 48 h, read-out: IC50 T. brucei brucei (48 h).
[11] abbreviates: 72 h, read-out: IC50 T. brucei brucei (72 h).
Where [12] appears, read: progress curves, inhibitor 0-16.7 μM (Figure 6).

Chain of cathepsin L (P07711 114-333, species assumed): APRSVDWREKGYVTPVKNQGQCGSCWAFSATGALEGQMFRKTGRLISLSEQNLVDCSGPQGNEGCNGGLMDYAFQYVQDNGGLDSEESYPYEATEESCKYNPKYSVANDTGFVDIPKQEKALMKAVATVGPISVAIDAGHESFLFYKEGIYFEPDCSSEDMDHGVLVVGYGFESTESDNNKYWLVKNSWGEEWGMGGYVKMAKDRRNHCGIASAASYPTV

Broadly, the IC50 is the concentration that gives 50% inhibition. `COc1cc(C)c(C(=O)NC2C(C)OC(OC3CC(C)=CC4C3CC(C)C3/C(C)=C\CC/C(C)=C/C5(C)C=C(C(=O)O)C(C)CC56OC(=O)C(=C6O)C(=O)C43C)C(O)C2(C)O)c(O)c1` (stereo not drawn) [Compound 1, Tetromycin 1] yielded an IC50 at 24 h in series [1] (293T kidney epithelial cells) of more than 100 µM. Moreover, the IC50 in series [2] was more than 100 µM; in [3] (setting [10]) it was 29.3 µM; in [3] (setting [11]) it was 31.7 µM.
Take `COc1cc(O)cc(C)c1C(=O)OC1C(C)OC(OC2CC=C(C)C3C2CC(C)C2/C(C)=C\CC/C(C)=C/C4C=C(C(=O)O)C(C)CC45OC(=O)C(=C5O)C(=O)C32C)C(O)C1O` (stereo not drawn) [Compound 3, Tetromycin 3]: the “ki (rate constant of inhibition) rhodesain” value in series [4] (Figure 8, data from two independent assays) came to 0.042 min⁻¹. Moreover, the Ki was found to be 2.1 ± 0.9 µM in [4], 15 ± 1.95 µM in series [5], 1.65 ± 0.25 µM in [6] and 0.57 ± 0.04 µM in series [7]. The “RD k2nd” value in series [4] is listed as 36,600 ± 1590 M^−1 min^−1. In addition, the “CL k2nd” value in series [5] is 14,977 ± 2005 M^−1 min^−1. The IC50 at 24 h in series [1] (293T kidney epithelial cells) was found to be 33.4 µM. Further, the “FP k2nd” value in series [6] is 617 ± 9 M⁻¹ min⁻¹. Moreover, the IC50 came out at 36.8 µM in series [2], 26.9 µM in [3] (setting [10]) and 30.4 µM in series [3] (setting [11]).
As for `COc1cc(C)c(C(=O)OC2C(C)OC(OC3CC(C)=CC4C3CC(C)C3/C(C)=C\CC/C(C)=C/C5(C)C=C(C(=O)O)C(C)CC56OC(=O)C(=C6O)C(=O)C43C)C(O)C2O)c(OC)c1` (stereo not drawn) [Compound 2, Tetromycin 2], in [1] (293T kidney epithelial cells), the IC50 at 24 h is more than 100 µM. In addition, the IC50 in series [2] is more than 100 µM; in series [3] (setting [10]), 45.4 µM; in series [3] (setting [11]), 80.3 µM.
Regarding `CC1=CC2(C)/C=C(\C)CC/C=C(/C)C3C(C)=CC4C(O)CCC(C)C4C3(C)C(=O)C3=C(O)C2(CC1C)OC3=O` (stereo not drawn) [Compound 5, Tetromycin B], in series [4] (Ki determined at three different substrate concentrations), the “mode of inhibition with respect to the substrate, rhodesain” value is “competitive inhibition”. In series [4] (setting [12]), the “time dependence of inhibition, rhodesain” value was “time-dependent inhibition”. Moreover, the Ki in [4] is 0.62 ± 0.03 µM; in [5] it was 32.5 ± 0.05 µM; in series [8], 69.6 ± 7.2 µM; in series [6] it was 1.42 ± 0.01 µM; in [7] it was 1.5 µM and 1.59 µM. For the same compound, the “RD k2nd” value in series [4] is listed as 14,539 ± 1949 M^−1 min^−1. Moreover, the “CL k2nd” value in series [5] was 1576 ± 413 M⁻¹ min⁻¹. The IC50 at 24 h in series [1] was determined as 71.8 µM; in [9], 20.2 µM. Moreover, the “FP k2nd” value in series [6] is reported as 15,540 ± 1295 M^−1 min^−1. The “time dependence of inhibition, cathepsin B” value in series [7] (setting [12]) is “non-time dependent inhibition”. The results for the IC50 in series [2], in [3] (setting [10]) and in series [3] (setting [11]) were more than 100 µM, 30.9 µM and 34.2 µM, respectively.
For `COc1cc(O)cc(C)c1C(=O)OC1C(C)OC(OC2CC(C)=CC3C2CC(C)C2/C(C)=C\CC/C(C)=C/C4(C)C=C(C(=O)O)C(C)CC45OC(=O)C(=C5O)C(=O)C32C)C(O)C1O` (stereo not drawn) [Compound 4, Tetromycin 4], the Ki in series [4] was determined as 4 ± 0.3 µM; in [5], 22.4 ± 0.8 µM; in series [8] it was 40 ± 6.5 µM; in [6], 3.1 ± 0.2 µM; in series [7], 1.6 ± 0.1 µM. In addition, the “RD k2nd” value in [4] came to 8354 ± 1562 M⁻¹ min⁻¹. In addition, the “CL k2nd” value in series [5] is recorded as 14,700 ± 1000 M^−1 min^−1. The compound further came in with an IC50 at 24 h in series [1] (293T kidney epithelial cells) of 58.6 µM. Besides, the “FP k2nd” value in series [6] came to 1836 ± 108 M⁻¹ min⁻¹. In addition, the IC50 in [2] is more than 100 µM; in series [3] (setting [10]) it was 35.9 µM; in [3] (setting [11]) it was 41.6 µM.
